Key:
Type in all cases: in vivo
Ixeris chinensis = experiment: Al ion stimulation alone or combined with ultraviolet irradiation, hydroponic culture; total flavonoid content of flowers and pedicels; settings: for total flavonoid content: flowers and pedicels, compared to control group
Method: 1. MS liquid medium was prepared according to the formulation of Table 1 shown above. 2. Different amounts of AlCl3 solution were added to the MS liquid medium prepared above to respectively form MS liquid mediums with AlCl3 final concentrations of 0 mM (control group) and 1.25 mM for ready for use. 3. […] chinensis plants were sampled from the field. Leaves and pedicels of the above-ground part and root of the under-ground part of the […] chinensis plant were wiped and wash with water and the root were allowed in a form of bare root. After that, the whole plant was inserted into a test tube containing the MS liquid medium with AlCl3 prepared above, and the root of the plant was immersed in the liquid medium. 4. At the 73th hour of the immersion, the plants were irradiated with ultraviolet B for 1 hour. The plants were then allowed to recover for 3 hour. After the recovery, the morphological changes of the plants were observed and samples of flowers and pedicels were collected. Then, the collected samples were lyophilized. 5. The collected flowers and pedicels of the fresh plant were extracted with 30% ethanol and subjected to total flavonoid content analysis.

Chrysanthemum morifolium [1] = experiment: Al ion stimulation of flowering plants for 96 hours, soil culture; flavonoid contents of flowers; settings: AlCl3 1.25 mM and 2.5 mM, compared to control group
Method: 1. AlCl3 solutions with concentrations of 1.25 mM and 2.5 mM were prepared, respectively. 2. The flowering plants of Chrysanthemum morifolium (adult of Chrysanthemum morifolium) cultured by soil culture together with the soil and flower pots where the plants were located, were immersed in the AlCl3 solutions prepared above. 3. After being immersed for 96 hours, the morphological changes of the plants were observed and the samples of flowers were collected and lyophilized. 4. After the lyophilization, extraction was performed on the flowers of Chrysanthemum morifolium. The extraction method used was water extraction, and the dried flowers and deionized water were mixed at a ratio of 1:20 (g/mL) (i.e., 1 g dry weight of flowers was added to 20 mL of deionized water) to form a mixture. Using a condensing heating system, the mixture was heated to boiling for 90 minutes to complete the extraction and obtain an extract solution. The plant residue in the extract solution was removed by filtration, and then the extract solution was further lyophilized to obtain an extract.

Chrysanthemum morifolium [2] = experiment: Al ion stimulation alone or combined with ultraviolet irradiation, hydroponic culture; flavonoid glycoside contents by HPLC; settings: whole plants, compared to control group
Method: 1. MS liquid medium was prepared based on the formulation of Table 1 shown above. 2. Different amounts of AlCl3 solution were added to the MS liquid medium prepared above to respectively form MS liquid mediums with AlCl3 final concentrations of 0 μM (control group) and 250 μM for ready for use. 3. Tissue culture seedlings of Chrysanthemum morifolium (young shoot of Chrysanthemum morifolium) were taken out from solid culture tubes. After that, the solid medium on the roots of the plants were washed with water, and the whole plants were inserted into test tubes containing the MS liquid medium with different AlCl3 final concentration prepared above, and the roots of the plant were immersed in the liquid medium. Finally, the above-ground parts of the plants were covered with sealed bags to protect the cuticula on the surfaces of the plant leaves to prevent rapid evapotranspiration of water. 4. […] The plants were then allowed to recover for 1 hour. After the recovery, the morphological changes of the plants were observed and samples of whole plants were collected. Then, the collected samples were lyophilized. 5. After the lyophilization, extraction was performed on the whole plant of Chrysanthemum morifolium. The extraction method used was water extraction, and the dried plant and deionized water were mixed at a ratio of 1:20 (g/mL) (i.e., 1 g dry weight of plant was added to 20 mL of deionized water) to form a mixture. Using a condensing heating system, the mixture was heated to boiling for 90 minutes to complete the extraction and obtain an extract solution. The plant residue in the extract solution was removed by filtration, and then the extract solution was further lyophilized to obtain an extract. 6. High-performance liquid chromatography was performed on the extract mentioned above to determine the contents of luteolin-7-O-β-D-glycoside and […] which belong to flavonoid compounds.

Chrysanthemum morifolium [3] = experiment: Al ion stimulation alone or combined with ultraviolet irradiation, solid medium culture; total flavonoid content; settings: whole plant, compared to control group
Method: 1. Different amounts of AlCl3 were added to the formulation of Table 2 shown above to respectively form MS solid mediums with final concentration of 0 μM (control group) and 350 μM for ready for use. 2. A terminal bud of a tissue culture seedling of Chrysanthemum morifolium (young shoot of Chrysanthemum morifolium) was cut and inserted to a solid medium without addition of the stimulation ion. After the plant had grown roots, the root part of the plant having the root with a length of less than 0.5 cm was inserted to the solid medium prepared above to perform the solid medium culture. 4. On the 41st day of the culture, the plants were irradiated with ultraviolet B for 0, 1, 2 and 4 hours, respectively. The plants were then allowed to recover for 3 hours. After the recovery, the morphological changes of the plants were observed and samples of whole plants (plants stimulated by Al ions alone, plants irradiated with 1 hour of ultraviolet alone, and plants stimulated by Al ions and 1, 2, and 4 hours of ultraviolet irradiation were obtained) were collected. After that, the collected samples were lyophilized. 5. After the lyophilization, extraction was performed on the whole plant. […] Quantitative analysis of total flavonoids was performed on the extracts mentioned above.

Chrysanthemum morifolium [4] = experiment: Al ion stimulation for different lengths of time, hydroponic culture; flavonoid glycoside contents by HPLC; settings: whole plants, AlCl3 70, 250, 350 μM, 48, 72, 96 hours, compared to control group, had a dose effect
Method: (§1) 1. MS liquid medium was prepared based on the formulation of Table 1 shown in the following. 2. Different amounts of AlCl3 solution were added to the MS liquid medium prepared above to respectively form MS liquid mediums with AlCl3 final concentrations of 0 μM (control group), 70 μM, 250 μM and 350 μM for ready for use. 3. Tissue culture seedlings of Chrysanthemum morifolium (young shoot of Chrysanthemum morifolium) were taken out from solid culture tubes. After that, the solid medium on the root of the plants was washed with water, and the whole plants were inserted into test tubes containing the MS liquid medium with different AlCl3 final concentration prepared above, and the roots of the plants were immersed in the liquid medium. Finally, the above-ground parts of the plants were covered with sealed bags to protect the cuticula on the surfaces of the plant leaves to prevent rapid evapotranspiration of water. 4. After being immersed for 48, 72 and 96 hours, the morphological changes of the plants were observed and the samples of whole plants were collected. Then, the collected samples were lyophilized. 5. After the lyophilization, extraction was performed on the whole plant of Chrysanthemum morifolium. […]

Chrysanthemum morifolium [5] = experiment: Al ion stimulation at different concentrations for 72 hours, hydroponic culture; flavonoid glycoside contents by HPLC; settings: whole plants, AlCl3 100, 150, 200, 250 μM, compared to control group
Method: as §1, with “above.” for “in the following.”, “100” for “70”, “150 μM, 200” for “250”, “250” for “350”, “for” for “for 48,”, “72” for “72 and 96”

Chrysanthemum morifolium [6] = experiment: Cu ion stimulation alone or combined with ultraviolet irradiation, hydroponic culture; flavonoid glycoside contents by HPLC; settings: whole plants, compared to control group
Chrysanthemum morifolium [7] = experiment: Zn ion stimulation for 40 days, solid medium culture; flavonoid glycoside contents by HPLC; settings: whole plants, Zn ion 15, 30, 45 mM, compared to control group (3 mM)
Method: 1. Different amounts of ZnSO4 were added to the formulation of Table 2 shown in the following to respectively form MS solid mediums with different Zn ion final concentration of 3 mM (control group), 15 mM, 30 mM and 45 mM for ready for use. 2. A terminal bud of a tissue culture seedling of Chrysanthemum morifolium (young shoot of Chrysanthemum morifolium) was cut and inserted to the solid medium prepared above (since a rooted plant was not easy to insert into solid medium, the experiment was performed in this way) to perform the solid medium culture. Since Zn is mainly absorbed by the roots of plants, the evaluation only could start after the plant had grown roots. The Zn element could be absorbed and utilized by the plant only after the plant had grown roots. Plants were allowed to absorb zinc during growth and development, thereby causing changes in physiological and compositional components in the plants. 3. After being cultured for 40 days, the morphological changes of the plants were observed and the samples of whole plants were collected. Then, the collected samples were lyophilized. 4. After the lyophilization, extraction was performed on the whole plant of Chrysanthemum morifolium. […]

[8] = AlCl3 250 μM plus ultraviolet B 1 hour at 97th hour, recovery 1 hour
[9] = CuSO4 250 μM plus ultraviolet B 1 hour at 97th hour, recovery 1 hour

Question: With `[Cl][Al]([Cl])[Cl]` [Al ions, AlCl3] as the compound, how does the “appearance of plants before and after the ultraviolet irradiation, under Al ion stimulation” value (Ixeris chinensis; AlCl3 1.25 mM, ultraviolet B 1 hour) read?
Answer: no significant difference

Question: What about the total flavonoid content (Ixeris chinensis; AlCl3 1.25 mM plus ultraviolet B 1 hour at 73th hour, recovery 3 hour) of the same compound?
Answer: about 3.5 fold

Question: And the total flavonoid content (Ixeris chinensis; AlCl3 1.25 mM, Al ions alone)?
Answer: increased

Question: And the content of apigenin (Chrysanthemum morifolium [1])?
Answer: significantly increased

Question: And the “content of apigenin-7-O-β-D-glycoside” value (Chrysanthemum morifolium [1])?
Answer: significantly increased

Question: And the “content of luteolin-7-O-β-D-glycoside” value (Chrysanthemum morifolium [1])?
Answer: significantly increased

Question: And the “content of apigenin-7-O-β-D-glycoside” value (Chrysanthemum morifolium [2]; [8])?
Answer: about 40 fold

Question: What about the “content of luteolin-7-O-β-D-glycoside” value (Chrysanthemum morifolium [2]; [8]) of the same compound?
Answer: about 40 fold

Question: And the “content of apigenin-7-O-β-D-glycoside” value (Chrysanthemum morifolium [2]; AlCl3 250 μM, Al ions alone)?
Answer: increased

Question: And the “content of luteolin-7-O-β-D-glycoside” value (Chrysanthemum morifolium [2]; AlCl3 250 μM, Al ions alone)?
Answer: increased

Question: What about the total flavonoid content (Chrysanthemum morifolium [3]; AlCl3 350 μM plus ultraviolet B 1, 2, 4 hours on 41st day, recovery 3 hours) of the same compound?
Answer: increased

Question: And the total flavonoid content (Chrysanthemum morifolium [3]; AlCl3 350 μM, Al ions alone)?
Answer: increased

Question: And the “content of apigenin-7-O-β-D-glycoside” value (Chrysanthemum morifolium [4])?
Answer: significantly increased

Question: What about the “content of luteolin-7-O-β-D-glycoside” value (Chrysanthemum morifolium [4]) of the same compound?
Answer: significantly increased

Question: And the “content of apigenin-7-O-β-D-glycoside” value (Chrysanthemum morifolium [5])?
Answer: significantly increased about twofold to threefold

Question: And the “content of luteolin-7-O-β-D-glycoside” value (Chrysanthemum morifolium [5])?
Answer: significantly increased about twofold to threefold

Question: `O=S(=O)([O-])[O-].[Cu+2]` [Cu ions, CuSO4] was tested. Which “content of apigenin-7-O-β-D-glycoside” value (Chrysanthemum morifolium [6]; [9]) did it give?
Answer: about 37 fold

Question: And the “content of luteolin-7-O-β-D-glycoside” value (Chrysanthemum morifolium [6]; [9])?
Answer: about 37 fold

Question: What about the “content of apigenin-7-O-β-D-glycoside” value (Chrysanthemum morifolium [6]; CuSO4 250 μM, Cu ions alone) of the same compound?
Answer: increased

Question: And the “content of luteolin-7-O-β-D-glycoside” value (Chrysanthemum morifolium [6]; CuSO4 250 μM, Cu ions alone)?
Answer: increased

Question: For `O=S(=O)([O-])[O-].[Zn+2]` [Zn ions, ZnSO4], which “content of apigenin-7-O-β-D-glycoside” value (Chrysanthemum morifolium [7]) is on record?
Answer: significantly increased about sevenfold to eightfold

Question: What about the “content of luteolin-7-O-β-D-glycoside” value (Chrysanthemum morifolium [7]) of the same compound?
Answer: significantly increased about sevenfold to eightfold
